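Grown in 96-well plates, cells were treated for 48 hours with each compound at five concentrations. Insufficient inhibition: endpoint recorded as highest concentration tested. TGI marks complete inhibition of growth.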
Columns and labels:
Assay in all cases: NCI-60 cell line screen, 48 h
ACHN renal = test system: ACHN renal
OVCAR-8 ovarian = test system: OVCAR-8 ovarian
M19-MEL melanoma = test system: M19-MEL melanoma
SK-OV-3 ovarian = test system: SK-OV-3 ovarian
HCC-2998 colon = test system: HCC-2998 colon
M14 melanoma = test system: M14 melanoma
SW-620 colon = test system: SW-620 colon
LOX IMVI melanoma = test system: LOX IMVI melanoma
K-562 leukemia = test system: K-562 leukemia
HOP-92 NSCLC = test system: HOP-92 NSCLC
OVCAR-5 ovarian = test system: OVCAR-5 ovarian
OVCAR-4 ovarian = test system: OVCAR-4 ovarian
HOP-62 NSCLC = test system: HOP-62 NSCLC
SF-268 CNS = test system: SF-268 CNS
HCT-15 colon = test system: HCT-15 colon
XF 498 CNS = test system: XF 498 CNS
MALME-3M melanoma = test system: MALME-3M melanoma
CCRF-CEM leukemia = test system: CCRF-CEM leukemia
UACC-257 melanoma = test system: UACC-257 melanoma
HL-60(TB) leukemia = test system: HL-60(TB) leukemia
HCT-116 colon = test system: HCT-116 colon
SK-MEL-5 melanoma = test system: SK-MEL-5 melanoma
OVCAR-3 ovarian = test system: OVCAR-3 ovarian
A498 renal = test system: A498 renal
SF-295 CNS = test system: SF-295 CNS
NCI-H23 lung = test system: NCI-H23 lung
DMS 114 small cell lung = test system: DMS 114 small cell lung
NCI-H522 lung = test system: NCI-H522 lung
RXF-631 renal = test system: RXF-631 renal
RPMI-8226 leukemia = test system: RPMI-8226 leukemia
LXFL 529 NSCLC = test system: LXFL 529 NSCLC
SN12C renal = test system: SN12C renal
SF-539 CNS = test system: SF-539 CNS
U251 CNS = test system: U251 CNS
786-0 renal = test system: 786-0 renal
NCI-H226 lung = test system: NCI-H226 lung
SNB-78 CNS = test system: SNB-78 CNS
SK-MEL-28 melanoma = test system: SK-MEL-28 melanoma
SNB-19 CNS = test system: SNB-19 CNS
KM20L2 colon = test system: KM20L2 colon
SNB-75 CNS = test system: SNB-75 CNS
HT29 colon = test system: HT29 colon
TK-10 renal = test system: TK-10 renal
CAKI-1 renal = test system: CAKI-1 renal
KM12 colon = test system: KM12 colon
RXF 393 renal = test system: RXF 393 renal
MOLT-4 leukemia = test system: MOLT-4 leukemia
DMS 273 small cell lung = test system: DMS 273 small cell lung
IGROV1 ovarian = test system: IGROV1 ovarian
UACC-62 melanoma = test system: UACC-62 melanoma
DLD-1 colon = test system: DLD-1 colon
EKVX NSCLC = test system: EKVX NSCLC
A549 NSCLC = test system: A549 NSCLC
SK-MEL-2 melanoma = test system: SK-MEL-2 melanoma
UO-31 renal = test system: UO-31 renal
NCI-H460 lung = test system: NCI-H460 lung
COLO 205 colon = test system: COLO 205 colon
HOP-18 NSCLC = test system: HOP-18 NSCLC
SR leukemia = test system: SR leukemia

Cc1cc2c(C(C)C)c(O)c(O)c3coc(/c1=c1/c(C)cc4c(C(C)C)c(=O)c(=O)c5coc1c45)c32 showed a TGI (ACHN renal) of 12.3 µM, a TGI (OVCAR-8 ovarian) of 17.1 µM and a TGI (M19-MEL melanoma) of 19.7 µM. The TGI (SK-OV-3 ovarian) was 33.7 µM, the TGI (HCC-2998 colon) was 14.8 µM and the TGI (M14 melanoma) was 25.5 µM. It also gave a TGI (SW-620 colon) of 17.4 µM, a TGI (LOX IMVI melanoma) of 18 µM and a TGI (K-562 leukemia) of 16.5 µM. It also gave a TGI (HOP-92 NSCLC) of 7.11 µM, a TGI (OVCAR-5 ovarian) of 32.4 µM and a TGI (OVCAR-4 ovarian) of 22.8 µM. The TGI (HOP-62 NSCLC) was 23.7 µM, the TGI (SF-268 CNS) was 24.1 µM and the TGI (HCT-15 colon) was 15.6 µM. It also gave a TGI (XF 498 CNS) of 17.4 µM, a TGI (MALME-3M melanoma) of 29.1 µM and a TGI (CCRF-CEM leukemia) of 16.6 µM. The TGI (UACC-257 melanoma) was 31 µM, the TGI (HL-60(TB) leukemia) was 17.8 µM and the TGI (HCT-116 colon) was 10.8 µM. The TGI (SK-MEL-5 melanoma) was 28.6 µM, the TGI (OVCAR-3 ovarian) was 16.6 µM and the TGI (A498 renal) was 24.8 µM. The TGI (SF-295 CNS) was 16.2 µM, the TGI (NCI-H23 lung) was 9.2 µM and the TGI (DMS 114 small cell lung) was 6.48 µM. For the same compound, the TGI (NCI-H522 lung) was 19 µM, the TGI (RXF-631 renal) was 22 µM and the TGI (RPMI-8226 leukemia) was 34.5 µM. For the same compound, the TGI (LXFL 529 NSCLC) was 12.7 µM, the TGI (SN12C renal) was 23.7 µM and the TGI (SF-539 CNS) was 12.9 µM. It also gave a TGI (U251 CNS) of 14.3 µM, a TGI (786-0 renal) of 22.1 µM and a TGI (NCI-H226 lung) of 22.9 µM. It also gave a TGI (SNB-78 CNS) of 25.2 µM, a TGI (SK-MEL-28 melanoma) of 22.2 µM and a TGI (SNB-19 CNS) of 15.6 µM. It also gave a TGI (KM20L2 colon) of 18.1 µM, a TGI (SNB-75 CNS) of 23.1 µM and a TGI (HT29 colon) of 14.4 µM. For the same compound, the TGI (TK-10 renal) was 27.8 µM, the TGI (CAKI-1 renal) was 26.9 µM and the TGI (KM12 colon) was 14.9 µM. It also gave a TGI (RXF 393 renal) of 23.1 µM, a TGI (MOLT-4 leukemia) of 17.4 µM and a TGI (DMS 273 small cell lung) of 13.8 µM. For the same compound, the TGI (IGROV1 ovarian) was 15.1 µM, the TGI (UACC-62 melanoma) was 13.5 µM and the TGI (DLD-1 colon) was 16.4 µM. It also gave a TGI (EKVX NSCLC) of 16.4 µM, a TGI (A549 NSCLC) of 15.6 µM and a TGI (SK-MEL-2 melanoma) of 17.9 µM. The TGI (UO-31 renal) was 31.1 µM, the TGI (NCI-H460 lung) was 16.2 µM and the TGI (COLO 205 colon) was 5.34 µM.

Work on CC(C)=CC(=O)Cc1nc2ccccc2[nH]c1=O yielded a TGI (ACHN renal) of over 100 µM, a TGI (HOP-18 NSCLC) of over 100 µM and a TGI (M19-MEL melanoma) of over 100 µM. The TGI (SK-OV-3 ovarian) was over 100 µM, the TGI (HCC-2998 colon) was over 100 µM and the TGI (M14 melanoma) was over 100 µM. The TGI (SW-620 colon) was over 100 µM, the TGI (LOX IMVI melanoma) was over 100 µM and the TGI (K-562 leukemia) was over 100 µM. The TGI (HOP-92 NSCLC) was 68 µM, the TGI (OVCAR-5 ovarian) was over 100 µM and the TGI (OVCAR-4 ovarian) was over 100 µM. For the same compound, the TGI (HOP-62 NSCLC) was over 100 µM, the TGI (SF-268 CNS) was over 100 µM and the TGI (HCT-15 colon) was over 100 µM. The TGI (MALME-3M melanoma) was over 100 µM, the TGI (CCRF-CEM leukemia) was over 100 µM and the TGI (UACC-257 melanoma) was over 100 µM. For the same compound, the TGI (HL-60(TB) leukemia) was over 100 µM, the TGI (HCT-116 colon) was over 100 µM and the TGI (SK-MEL-5 melanoma) was over 100 µM. For the same compound, the TGI (OVCAR-3 ovarian) was over 100 µM, the TGI (A498 renal) was over 100 µM and the TGI (SF-295 CNS) was over 100 µM. It also gave a TGI (NCI-H23 lung) of over 100 µM, a TGI (SR leukemia) of over 100 µM and a TGI (RXF-631 renal) of over 100 µM. The TGI (RPMI-8226 leukemia) was over 100 µM, the TGI (LXFL 529 NSCLC) was over 100 µM and the TGI (SN12C renal) was over 100 µM. The TGI (SF-539 CNS) was over 100 µM, the TGI (U251 CNS) was over 100 µM and the TGI (786-0 renal) was over 100 µM. The TGI (NCI-H226 lung) was over 100 µM, the TGI (SNB-78 CNS) was over 100 µM and the TGI (SK-MEL-28 melanoma) was over 100 µM. For the same compound, the TGI (SNB-19 CNS) was over 100 µM, the TGI (KM20L2 colon) was over 100 µM and the TGI (SNB-75 CNS) was over 100 µM. For the same compound, the TGI (HT29 colon) was over 100 µM, the TGI (TK-10 renal) was over 100 µM and the TGI (CAKI-1 renal) was over 100 µM. For the same compound, the TGI (KM12 colon) was over 100 µM, the TGI (RXF 393 renal) was 79.2 µM and the TGI (MOLT-4 leukemia) was over 100 µM. For the same compound, the TGI (DMS 273 small cell lung) was over 100 µM, the TGI (IGROV1 ovarian) was over 100 µM and the TGI (UACC-62 melanoma) was over 100 µM. The TGI (DLD-1 colon) was over 100 µM, the TGI (EKVX NSCLC) was over 100 µM and the TGI (A549 NSCLC) was over 100 µM. For the same compound, the TGI (SK-MEL-2 melanoma) was over 100 µM, the TGI (UO-31 renal) was over 100 µM and the TGI (NCI-H460 lung) was over 100 µM. The TGI (COLO 205 colon) was over 100 µM.
